# Results from patent US20220041681A1 (MEDIMMUNE LIMITED, priority 2016, published 2022).
# Test system: Healthy volunteer
# Assay: Phase 1 single-ascending dose study
# Conditions: for Median glucose peak after breakfast: 1 hour post breakfast, 3.5 hours post dose; for Median glucose peak after dinner: 1 hour post dinner, […] post dose; for Median glucose peak after lunch: 1 hour post lunch, 7 hours post dose; for Overall daily food intake compared with placebo: across breakfast, lunch and dinner
# [1] = Total G933, N = 36, subjects n (%)
smiles,measurement,setting,value
CCCCCCCCCCCCCCCC(=O)N[C@@H](CCC(=O)NCCCC[C@H](NC(=O)[C@H](CC(=O)O)NC(=O)[C@H](CO)NC(=O)C(NC(=O)[C@H](Cc1ccccc1)NC(=O)C(NC(=O)CNC(=O)[C@H](CCC(N)=O)NC(=O)[C@H](CO)NC(=O)[C@@H](N)Cc1cnc[nH]1)[C@@H](C)O)[C@@H](C)O)C(=O)N[C@@H](CO)C(=O)N[C@@H](CCC(=O)O)C(=O)N[C@@H](Cc1ccc(O)cc1)C(=O)N[C@@H](CC(C)C)C(=O)N[C@@H](CC(=O)O)C(=O)N[C@@H](CO)C(=O)N[C@@H](CCC(=O)O)C(=O)N[C@@H](CCCNC(=N)N)C(=O)N[C@@H](C)C(=O)N[C@@H](CCCNC(=N)N)C(=O)N[C@@H](CC(=O)O)C(=O)N[C@@H](Cc1ccccc1)C(=O)N[C@H](C(=O)N[C@@H](C)C(=O)N[C@@H](Cc1c[nH]c2ccccc12)C(=O)N[C@@H](CC(C)C)C(=O)N[C@@H](CCC(=O)O)C(=O)N[C@@H](C)C(=O)NCC(=O)NCC(=O)O)C(C)C)C(=O)O (some centres unmarked) [Peptide G933],TEAE: Gastrointestinal Disorders,"150 μg, N = 6, subjects n (%)",5 (83.3%)
same,TEAE: Headache,"150 μg, N = 6, subjects n (%)",1 (16.7%)
same,TEAE: Immune System Disorders,"150 μg, N = 6, subjects n (%)",0
same,TEAE: Injury associated with device,"150 μg, N = 6, subjects n (%)",0
same,TEAE: Injury poisoning and procedural complications,"150 μg, N = 6, subjects n (%)",0
same,TEAE: Metabolism and nutrition disorders,"150 μg, N = 6, subjects n (%)",2 (33.3%)
same,TEAE: Musculoskeletal and connective tissue disorders,"150 μg, N = 6, subjects n (%)",0
same,TEAE: Musculoskeletal chest pain,"150 μg, N = 6, subjects n (%)",0
same,TEAE: Nasopharyngitis,"150 μg, N = 6, subjects n (%)",0
same,TEAE: Nausea,"150 μg, N = 6, subjects n (%)",4 (66.7%)
same,TEAE: Nervous system disorders,"150 μg, N = 6, subjects n (%)",1 (16.7%)
same,TEAE: Oropharyngeal pain,"150 μg, N = 6, subjects n (%)",1 (16.7%)
same,TEAE: Procedural dizziness,"150 μg, N = 6, subjects n (%)",0
same,"TEAE: Respiratory, thoracic and mediastinal disorders","150 μg, N = 6, subjects n (%)",1 (16.7%)
same,TEAE: Seasonal allergy,"150 μg, N = 6, subjects n (%)",0
same,TEAE: Subjects with at least one event,"150 μg, N = 6, subjects n (%)",5 (83.3%)
same,TEAE: Ventricular extrasystoles,"150 μg, N = 6, subjects n (%)",0
same,TEAE: Vomiting,"150 μg, N = 6, subjects n (%)",4 (66.7%)
same,vomiting episodes,"300 μg dose, 5 subjects",Thirty
same,tolerability,300 μg single SC dose,not tolerated
same,TEAE: Abdominal distension,"300 μg, N = 6, subjects n (%)",0
same,TEAE: Abdominal pain,"300 μg, N = 6, subjects n (%)",0
same,TEAE: Application site erosion,"300 μg, N = 6, subjects n (%)",0
same,TEAE: Arrhythmia,"300 μg, N = 6, subjects n (%)",0
same,TEAE: Atrioventricular block second degree,"300 μg, N = 6, subjects n (%)",0
same,TEAE: Cardiac Disorders,"300 μg, N = 6, subjects n (%)",1 (16.7%)
same,TEAE: Decreased appetite,"300 μg, N = 6, subjects n (%)",0
same,TEAE: Diarrhea,"300 μg, N = 6, subjects n (%)",0
same,TEAE: Dizziness,"300 μg, N = 6, subjects n (%)",1 (16.7%)
same,TEAE: Gastrointestinal Disorders,"300 μg, N = 6, subjects n (%)",5 (83.3%)
same,TEAE: Headache,"300 μg, N = 6, subjects n (%)",0
same,TEAE: Immune System Disorders,"300 μg, N = 6, subjects n (%)",0
same,TEAE: Injury associated with device,"300 μg, N = 6, subjects n (%)",1 (16.7%)
same,TEAE: Injury poisoning and procedural complications,"300 μg, N = 6, subjects n (%)",0
same,TEAE: Metabolism and nutrition disorders,"300 μg, N = 6, subjects n (%)",0
same,TEAE: Musculoskeletal and connective tissue disorders,"300 μg, N = 6, subjects n (%)",0
same,TEAE: Musculoskeletal chest pain,"300 μg, N = 6, subjects n (%)",0
same,TEAE: Nasopharyngitis,"300 μg, N = 6, subjects n (%)",0
same,TEAE: Nausea,"300 μg, N = 6, subjects n (%)",3 (50.0%)
same,TEAE: Oropharyngeal pain,"300 μg, N = 6, subjects n (%)",0
same,TEAE: Procedural dizziness,"300 μg, N = 6, subjects n (%)",0
same,"TEAE: Respiratory, thoracic and mediastinal disorders","300 μg, N = 6, subjects n (%)",0
same,TEAE: Seasonal allergy,"300 μg, N = 6, subjects n (%)",0
same,TEAE: Subjects with at least one event,"300 μg, N = 6, subjects n (%)",5 (83.3%)
same,TEAE: Ventricular extrasystoles,"300 μg, N = 6, subjects n (%)",1 (16.7%)
same,TEAE: Vomiting,"300 μg, N = 6, subjects n (%)",5 (83.3%)
same,TEAE: Abdominal distension,[1],2 (5.6%)
same,TEAE: Abdominal pain,[1],1 (2.8%)
same,TEAE: Application site erosion,[1],1 (2.8%)
same,TEAE: Arrhythmia,[1],1 (2.8%)
same,TEAE: Atrioventricular block second degree,[1],1 (2.8%)
same,TEAE: Cardiac Disorders,[1],3 (8.3%)
same,TEAE: Decreased appetite,[1],2 (5.6%)
same,TEAE: Diarrhea,[1],1 (2.8%)
same,TEAE: Dizziness,[1],5 (13.9%)
same,TEAE: Gastrointestinal Disorders,[1],12 (33.3%)
same,TEAE: Headache,[1],4 (11.1%)
same,TEAE: Immune System Disorders,[1],1 (2.8%)
same,TEAE: Injury associated with device,[1],1 (2.8%)
same,TEAE: Injury poisoning and procedural complications,[1],1 (2.8%)
same,TEAE: Metabolism and nutrition disorders,[1],2 (5.6%)
same,TEAE: Musculoskeletal and connective tissue disorders,[1],1 (2.8%)
same,TEAE: Musculoskeletal chest pain,[1],1 (2.8%)
same,TEAE: Nasopharyngitis,[1],1 (2.8%)
same,TEAE: Nausea,[1],8 (22.2%)
same,TEAE: Oropharyngeal pain,[1],1 (2.8%)
same,TEAE: Procedural dizziness,[1],1 (2.8%)
same,"TEAE: Respiratory, thoracic and mediastinal disorders",[1],1 (2.8%)
same,TEAE: Seasonal allergy,[1],1 (2.8%)
same,TEAE: Subjects with at least one event,[1],21 (58.3%)
same,TEAE: Ventricular extrasystoles,[1],1 (2.8%)
same,TEAE: Vomiting,[1],10 (27.8%)
same,severity of treatment-emergent adverse events,all doses,Grade 1 (mild) or Grade 2 (moderate)
same,overall daily food intake,"all doses compared with placebo, in words",reduction in overall daily food intake
same,plasma glucose levels,"all doses, around meal times, in words",glucose lowering effect
same,ADA positive subjects,baseline or post-baseline,No subjects were ADA positive
same,"tolerability with respect to nausea, vomiting, tachycardia and blood pressure",doses up to 150 μg,acceptable
same,geometric mean t1/2,single SC dose,10 to 12 h
same,Median diastolic BP maximum post dose change,single dose 5 μg,13 mm Hg
same,Number of subjects with vomiting,single dose 5 μg,0(0)
same,vomiting episodes,single dose 5 μg,0(0)
same,Median glucose peak after breakfast,single dose 5 μg,6.2 mmol/L
same,Median glucose peak after dinner,single dose 5 μg,7.0 mmol/L
same,Median glucose peak after lunch,single dose 5 μg,4.9 mmol/L
same,Overall daily food intake compared with placebo,single dose 5 μg,100%
same,Median diastolic BP maximum post dose change,single dose 10 μg,8 mm Hg
same,Number of subjects with vomiting,single dose 10 μg,0(0)
same,vomiting episodes,single dose 10 μg,0(0)
same,Median glucose peak after breakfast,single dose 10 μg,5.8 mmol/L
same,Median glucose peak after dinner,single dose 10 μg,6.0 mmol/L
same,Median glucose peak after lunch,single dose 10 μg,5.1 mmol/L
same,Overall daily food intake compared with placebo,single dose 10 μg,100%
same,Number of subjects with vomiting,single dose 30 μg,0(0)
same,vomiting episodes,single dose 30 μg,0(0)
same,Median glucose peak after breakfast,single dose 30 μg,5.4 mmol/L
same,Median glucose peak after dinner,single dose 30 μg,5.2 mmol/L
same,Median glucose peak after lunch,single dose 30 μg,4.4 mmol/L
same,Overall daily food intake compared with placebo,single dose 30 μg,96%
same,Median diastolic BP maximum post dose change,single dose 100 μg,16 mm Hg
same,Number of subjects with vomiting,single dose 100 μg,1(1)
same,vomiting episodes,single dose 100 μg,1(1)
same,Median glucose peak after breakfast,single dose 100 μg,5.5 mmol/L
same,Median glucose peak after dinner,single dose 100 μg,5.2 mmol/L
same,Median glucose peak after lunch,single dose 100 μg,4.7 mmol/L
same,Overall daily food intake compared with placebo,single dose 100 μg,82%
same,Median diastolic BP maximum post dose change,single dose 150 μg,15 mm Hg
same,Number of subjects with vomiting,single dose 150 μg,4
same,vomiting episodes,single dose 150 μg,9
same,Median glucose peak after breakfast,single dose 150 μg,5.1 mmol/L
same,Median glucose peak after dinner,single dose 150 μg,5.2 mmol/L
same,Median glucose peak after lunch,single dose 150 μg,5.1 mmol/L
same,Overall daily food intake compared with placebo,single dose 150 μg,60%
same,Median diastolic BP maximum post dose change,single dose 300 μg,19 mm Hg
same,Number of subjects with vomiting,single dose 300 μg,5
same,vomiting episodes,single dose 300 μg,30
same,Median glucose peak after breakfast,single dose 300 μg,4.7 mmol/L
same,Median glucose peak after dinner,single dose 300 μg,4.9 mmol/L
same,Median glucose peak after lunch,single dose 300 μg,5.1 mmol/L
same,Overall daily food intake compared with placebo,single dose 300 μg,23%
